Literature values as cited in patent US9173845B2, “Controlled release pharmaceutical compositions of milnacipran” (priority 2009, dated 2015).

Conditions: immediate release Milnacipran, background

CCN(CC)C(=O)C1(c2ccccc2)CC1CN (stereo not drawn) [Milnacipran, cis-2-amino methyl-N,N-diethyl-1-phenyl cyclopropane carboxamide]
half-life: ~8 h
